Source: the Deep4Chem optical property database

Experiment: solvent given as SMILES

N#Cc1ccc2[nH]ccc2c1
emission maximum (in C1CCOC1): 349 nm | emission maximum (in C1COCCO1): 348 nm | emission maximum (in CC#N): 362 nm | emission maximum (in CC(C)O): 362 nm | emission maximum (in CCO): 364 nm | emission maximum (in CO): 367 nm | emission maximum (in CS(C)=O): 371 nm | emission maximum (in O): 390 nm | emission maximum (in OCC(F)(F)F): 374 nm

CC(C)(C)c1ccc(C2=C(c3ccc(C(C)(C)C)cc3)[Si](c3ccccc3)(c3ccccc3)c3ccccc32)cc1
emission maximum (in C1CCOC1): 447 nm

CC/[NH+]=c1\cc2oc3cc(NCCOC(=O)C(NC(=O)OC(C)(C)C)C(C)C)c4ccccc4c3nc-2cc1C (centres undefined)
emission maximum (in CCO): 652 nm | emission maximum (in O): 652 nm

Nc1ccc2c(-c3ccc(Br)cc3)c3ccc(=[NH2+])cc-3oc2c1
emission maximum (in CCO): 532 nm

CN(c1ccccc1)c1ccc(/C=C2\C(=O)c3ccccc3S2(=O)=O)cc1
emission maximum (in C1CCOC1): 532 nm | emission maximum (in C1COCCO1): 542 nm | emission maximum (in CC#N): 511 nm | emission maximum (in CC(C)=O): 537 nm | emission maximum (in CCOC(C)=O): 533 nm | emission maximum (in CN(C)C=O): 524 nm | emission maximum (in CO): 525 nm | emission maximum (in CS(C)=O): 552 nm | emission maximum (in Cc1ccccc1): 576 nm | emission maximum (in ClC(Cl)Cl): 532 nm | emission maximum (in ClCCl): 547 nm

Fc1ccc2c(c1)sc1nc(-c3ccccc3)sc12
emission maximum (in CS(C)=O): 407 nm

O=Cc1ccc(Oc2ccc3c4c(cccc24)C(=O)N(CCO)C3=O)cc1
emission maximum (in ClC(Cl)Cl): 414 nm

O=c1oc2c(ccc3cc(O)ccc32)nc1-c1ccccc1
emission maximum (in c1ccccc1): 487 nm

O=c1oc2ccccc2c2c1c(=O)oc1ccc3ccc(O)cc3c12
emission maximum (in CS(C)=O): 506 nm | emission maximum (in ClCCl): 517 nm

F[B-]1(F)n2c(-c3ccccc3)cc(-c3ccccn3)c2N=C2C(c3ccccn3)=CC(c3ccccc3)=[N+]21
emission maximum (in CC#N): 682 nm

O=C([O-])c1ccccc1C1=c2cc3c4c(c2Oc2c1cc1c5c2CCCN5CCC1)CCC[N+]=4CCC3
emission maximum (in CC#N): 603 nm | emission maximum (in CCO): 593 nm | emission maximum (in CN(C)C=O): 608 nm | emission maximum (in O): 604 nm

O=c1c2ccccc2oc2cc(N3c4ccccc4C4(c5ccccc5Oc5ccccc54)c4ccccc43)ccc12
emission maximum (in Cc1ccccc1): 472 nm

CC1(C)C(/C=C/C=C/C=C/C=C2/N(CS(=O)(=O)[O-])c3ccc(S(=O)(=O)[O-])cc3C2(C)C)=[N+](CS(=O)(=O)[O-])c2ccc(S(=O)(=O)[O-])cc21
emission maximum (in CO): 776 nm | emission maximum (in O): 771 nm

Cc1cccc(-c2nc3sc4ccccc4c3s2)c1
emission maximum (in CS(C)=O): 412 nm

COc1ccc(-c2cnc3nn4ccccc4c3c2)cc1
emission maximum (in C1CCOC1): 423 nm

CC1(C)c2ccccc2N(c2ccc(-c3ncc(C#N)cn3)cc2)c2ccccc21
emission maximum (in Cc1ccccc1): 543 nm | emission maximum (in N#Cc1ccc2c(c1)c1ccccc1n2-c1cccc(-n2c3ccccc3c3ccccc32)c1): 541 nm

c1ccc2c(c1)c1ccccc1n2-c1ccc(-c2cc3ccc(-c4ccc5cc(-c6ccc(-n7c8ccccc8c8ccccc87)cc6)oc5c4)cc3o2)cc1
emission maximum (in Cc1ccccc1): 407 nm | emission maximum (in c1ccc2c(c1)c1ccccc1n2-c1ccc(-c2ccc(-n3c4ccccc4c4ccccc43)cc2)cc1): 419 nm

CCN(CC)c1ccc2c(c1)oc(=O)c1c(C)nc3c(c(-c4ccccc4)nn3C)c12
emission maximum (in ClCCl): 461 nm

Cc1ccc(/C2=c3\cc/c(o3)=C(\c3ccc(C)cc3)c3ccc([nH]3)-c3ccc4n3[P-](=O)(=O)[N+]3=C(C=CC3=C4c3cccs3)c3ccc2[nH]3)cc1
emission maximum (in ClC(Cl)Cl): 736 nm

CCCC1=C(CCC)c2cccc3c2c(cc2nc4ccccc4nc23)O1
emission maximum (in ClCCl): 563 nm

COc1ccc(-n2c3c4ccccc4nc(-c4ccc(C#N)cc4)c3c3c2c2c(-c4ccc(C#N)cc4)nc4ccccc4c2n3-c2ccc(OC)cc2)cc1
emission maximum (in ClC(Cl)Cl): 513 nm

COc1ccc(C2=Cc3c4ccccc4c4ccccc4[n+]3[B-](F)(F)O2)cc1
emission maximum (in ClC(Cl)Cl): 461 nm

CN(C)CCCN1c2ccccc2CCc2ccc(Cl)cc21
emission maximum (in CC#N): 348 nm | emission maximum (in CO): 353 nm | emission maximum (in O): 400 nm

CN(c1ccccc1)c1ccc(/C=C/c2ccccc2)cc1
emission maximum (in CC#N): 450 nm | emission maximum (in CCCCCC): 385 nm

CCCCCCn1c2cc(/C=C/c3ccccc3)ccc2c2ccc(/C=C/c3ccccc3)cc21
emission maximum (in ClC(Cl)Cl): 414.94 nm
